Assay results as given in PubChem BioAssay AID652005 (Sanford-Burnham Center for Chemical Genomics, 2013).
The source made the active and inactive calls. The rule behind the calls is not given here.

Target: Low molecular weight phosphotyrosine protein phosphatase (Homo sapiens) (UniProt P24666)
Assay: inhibition of human LMPTP enzyme activity – biochemical, absorbance, orthogonal assay, dose response (AID 652005)
Settings: recombinant LMPTP, absorbance-based phosphatase activity

Sequence of Low molecular weight phosphotyrosine protein phosphatase (Homo sapiens) (P24666 whole entry, looked up): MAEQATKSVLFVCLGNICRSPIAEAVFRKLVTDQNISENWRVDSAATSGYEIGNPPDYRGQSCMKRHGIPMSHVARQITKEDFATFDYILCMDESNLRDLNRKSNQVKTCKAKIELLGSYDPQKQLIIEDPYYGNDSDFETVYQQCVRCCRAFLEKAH

`CCc1ccc(C=C2SC(=S)N(CCCC(=O)Nc3ccc(C(=O)O)cc3)C2=O)cc1` was tested, and the IC50 was > 80 µM (inactive).

With `CCN(c1ccccc1)S(=O)(=O)c1cc(C(=O)O)ccc1C` the IC50 was “inactive”.

`O=c1[nH]c2ccccc2n1C1CCN(Cc2ccc(-c3[nH]c4cc5ncnc5cc4nc3-c3ccccc3)cc2)CC1` was tested, and the IC50 was > 80 µM (inactive).

In the case of `O=C(N=Nc1c(O)[nH]c2ccc(F)cc12)c1ccc(NS(=O)(=O)c2cccs2)cc1`, the IC50 is reported as > 80 µM (inactive).

For `Cc1csc2nc(O)c(C(=O)NCc3ccc4c(c3)OCO4)c(=O)n12`, the IC50 was > 80 µM (inactive).

With `O=C(NCc1ccc2c(c1)OCO2)c1c(O)nc2sccn2c1=O` the IC50 was > 80 µM (inactive).

`CC(C1SC(=S)NC1=O)C1SC(=S)NC1=O` (stereo not drawn) was tested, and the IC50 was > 80 µM (inactive).

In the case of `O=C(/C=C/c1ccc(Cl)cc1)NC(=S)Nc1ccc(C(=O)O)cc1`, the IC50 is reported as 15 µM.
